# Reference: US20210299260A1, “THERAPEUTIC CONJUGATES” (Ariel Scientific Innovations Ltd., priority 2018, published 2021)
# Key:
# [1] = literature report; cited from earlier work
# [2] = pH 7.4; cited from earlier work
# [3] = tested on: A172 GBM cells; assay: Intracranial A172 GBM xenograft model in nude mice (weight, survival, histopathology); conditions: for brain structure in brain sections / tumor area, tumor distribution and invasion in brain sections: H&E stained brain sections at termination; for brain structure in brain sections: FIG. 4; for brain structure in brain sections / tumor area, tumor distribution and invasion in brain sections / body weight gain of tumor-bearing mice / survival of tumor-bearing mice: Compound 1 50 mg/kg, TMZ 25 mg/kg; for body weight gain of tumor-bearing mice / survival of tumor-bearing mice: i.p. once daily, five injections; for body weight gain of tumor-bearing mice: FIG. 2; for tolerability to treatment: mice bearing GBM tumors, reflected by body weight and survival; for survival of tumor-bearing mice: FIG. 3A
# Method: The efficacy of Compound 1 in inhibition of intracranial malignant brain glioblastoma growth and survival in nude mice was evaluated using nude mice that were implanted with 5×10^5 A172 GBM cells in the right striatum, followed by consequent once daily five intraperitoneal injections with the vehicle, TMZ (25 mg/kg) and Compound 1 (50 mg/kg), on the tenth day after glioblastoma implantation.
# Mice brains were collected at termination day determined by appearance of severe clinical signs within tumor progression and invasion in brain tissue. Brains were fixed with 4% PFA, paraffin embedded and serially cut in to 5 μm. Three slides within a distance of 100 μm apart were sampled for each brain, and stained with hematoxyline-eosin dyes (H&E). Tumor area, distribution and invasion in to brain tissue were observed under light microscopy.
# [4] = physchem; type: physicochemical; conditions: for half-life: buffer
# Method: These studies were performed for Compound 1 at two pH values: 4.6 and 7.4, and compared to triazene drug dacarbazine (DTIC). These chosen pHs mimic relatively acidic cancer intracellular (pH 4.6) and slightly basic physiological (pH 7.4) environments.
# (§1) The results for DTIC are consistent with the reported stability of the control drug in various hydrolytic media. In addition, Compound 1 decomposition has been studied by hepatic cytochrome P450 induction in hepatocellular carcinoma HepG2 cells using LC-MS (FIG. 1D). […] The decomposition of Compound 1 was examined in cell medium and in cell lysate, while the identification of metabolites was carried out solely in cell lysate.
# [5] = tested on: hepatocellular carcinoma HepG2 cells; assay: Decomposition and metabolite detection in HepG2 cells (medium versus cell lysate), LC-MS; type: in vitro ADME
# Method: as §1
# It is assumed that this metabolite is the result of oxidation of Compound 1 by hepatic cytochrome P450 and subsequent degradation of two dimethyl triazene tethers in agreement with the mechanism of action of dacarbazine. The observed stability of Compound 1 in PBS potentiates its pharmacological utility during circulation in blood. Therefore, it is concluded that the stability of Compound 1 is sufficient for proceeding to animal models.
# [6] = listed as DKP-dimethyltriazene conjugate
compound,measurement,setting,value
NCC(=O)CCC(=O)O [5-aminolevulinic acid],BBB permeability,[1],did not show permeability
"Cn1nnc2c(C(N)=O)ncn2c1=O [TMZ, Temozolomide, reference compound]",plasma half-life,[2],1.8 h
same,brain structure in brain sections,[3],both lateral and third ventricles were significantly enlarged
same,"tumor area, tumor distribution and invasion in brain sections",[3],noticeable reduction
same,body weight gain of tumor-bearing mice,[3],Significant body weight gain reduction
same,tolerability to treatment,[3],relatively toxic and poorly tolerable
"CN(C)/N=N/c1ccc(C[C@H]2C(=O)N(C)[C@@H](Cc3ccc(/N=N/N(C)C)cc3)C(=O)N2C)cc1 [Compound 1, (3S,6S)-3,6-bis(4-((E)-3,3-dimethyltriaz-1-en-1-yl)benzyl)-1,4-dimethylpiperazine-2,5-dione]",half-life,[4]; pH 4.6,288 min
same,stability in PBS buffer,[4]; pH 7.4,sufficient stability
same,decomposition in cell medium,"[5]; HepG2, incubation in cell medium, FIG. 1C",continuous decomposition
same,accumulation/decomposition in cell lysate,"[5]; HepG2 cell lysate, FIG. 1C",gradually accumulated within an hour of incubation and decomposed subsequently
same,main metabolite detected in cell lysate,"[5]; HepG2 cell lysate, LC-MS, FIG. 1D",containing monomethyl triazene (MTIC like) and aniline (AIC like) groups
same,brain structure in brain sections,[3],normal brain structure
same,"tumor area, tumor distribution and invasion in brain sections",[3],noticeable reduction
same,body weight gain of tumor-bearing mice,[3],normal weight gain
same,body weight gain of tumor-bearing mice,[3]; [6],no weight loss
same,survival of tumor-bearing mice,[3],prominent effect on tumor bearing mice survival rate
same,survival of tumor-bearing mice,[3]; [6],superior activity compared to TMZ in overall survival
same,tolerability to treatment,[3],good tolerability
N-Me-Phe-(N-Me-Phe)3-CONH2,BBB permeability,[1],High BBB-permeability
"CN(C)/N=N/c1[nH]cnc1C(N)=O [DTIC, dacarbazine, reference compound]",half-life,[4]; pH 4.6,306 min
same,half-life,[4]; pH 7.4,612 min
O=C(O)C1CCCNC1 (centres unmarked) [nipecotic acid],BBB permeability,[1],did not show permeability
NCCCC(=O)O [γ-aminobutyric acid],BBB permeability,[1],did not show permeability
